From ChEMBL document CHEMBL5647684, “Expression of Src and FAK in hepatocellular carcinoma and the effect of Src inhibitors on hepatocellular carcinoma in vitro” (2009)

Tests used:
Assay type in all cases: functional
Huh-7 = assay: Growth inhibition of human Huh-7 cells after 3 days by MTT assay; conditions: time 3 day; for GI50: Homo sapiens, Huh-7, 72 h
HepG2 = assay: Growth inhibition of human HepG2 cells after 3 days by MTT assay; conditions: time 3 day; for GI50: Homo sapiens, HepG2, 72 h
PLC-PRF-5 = assay: Growth inhibition of human PLC-PRF-5 cells after 3 days by MTT assay; conditions: time 3 day
Hep 3B2 = assay: Growth inhibition of human Hep3B cells after 3 days by MTT assay; conditions: time 3 day

Structure (SMILES)	GI50 (Huh-7) [nM]	GI80 (Huh-7) [nM]	GI50 (HepG2) [nM]	GI80 (HepG2) [nM]	GI50 (PLC-PRF-5; Homo sapiens, PLC-PRF-5, 72 h) [nM]	GI80 (PLC-PRF-5) [nM]	GI50 (Hep 3B2; Homo sapiens, Hep3B, 72 h) [nM]	GI80 (Hep 3B2) [nM]
Cc1nc(Nc2ncc(C(=O)Nc3c(C)cccc3Cl)s2)cc(N2CCN(CCO)CC2)n1 [DASATINIB ANHYDROUS]	1970	7135	> 50000	>50000				
O=C(Cc1ccc(-c2ccc(OCCN3CCOCC3)cc2)cn1)NCc1ccccc1 [TIRBANIBULIN]	9	23	60	3658	13	24	26	88
